From US20050245399A1, “Pyrazole derivatives as herbicidal compositions containing them” (ISHIHARA SANGYO KAISHA, LTD., priority 2004, published 2005)

Key:
Format in all cases: in vivo
[1] = tested on: corn (Zea mays L.), ZEAMX; test: Test Example 2 post-emergence (foliage treatment) herbicidal activity, ZEAMX; conditions: 63 g a.i./ha
Outline: (§1)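 Each species was evaluated for growth suppression by eye, 0% matching untreated and 100% meaning death, some 20 to 23 days after a single post-emergence foliar treatment applied in 500 L/ha of water carrying 0.1% (v/v) agricultural spreader.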

[2] = tested on: barnyardgrass (Echinochiloa oryzicola: ECHOR); test: Test Example 3 water application herbicidal activity (paddy), ECHOR; conditions: 63 g a.i./ha, water application under submerged condition at 0.5 leaf stage, visually observed 14th day after application; 0 = untreated control, 100 = complete kill
Text: (§2) Paddy field soil was put into a 1/1,000,000 ha pot and seeds of barnyardgrass (Echinochiloa oryzicola: ECHOR) and japanese bulrush (Scirpus juncoides: SCPJO) were sown and slightly covered with soil. Then the pot was left to stand still in a greenhouse in a state where the depth of flooding water was from 0.5 to 1 cm, and one day later, tubers of japanese ribbon wapato (Sagittaria pygmaea: SA GPY) were planted. Thereafter, the depth of flooding water was maintained at a level of from 3 to 4 cm, and when barnyardgrass and japanese bulrush reached a 0.5 leaf stage, an aqueous diluted solution of a wettable powder or emulsifiable concentrate having the compound of the present invention formulated in accordance with a usual formulation method, was uniformly applied under submerged condition by a pipette so that the dose of the active ingredient would be at a predetermined level. On the other hand, paddy filed soil was put into a 1/1,000,000 ha pot and puddled and leveled, and the depth of flooding water was from 3 to 4 cm. One day later, rice (Oryza sativa L.: ORYSA) of 2 leaf stage was transplanted in a depth of 3 cm. On the 4th day after the transplantation, the compound of the present invention was applied in the same manner as described above. On the 14th day after the application of the herbicide, the growth of barnyardgrass, japanese burlush and japanese ribbon wapato was visually observed and on the 21st day after the application of the herbicide, the growth of rice was visually observed, and the herbicidal effects were evaluated by growth controlling degrees (%) ranging from 0 (equivalent to the untreated control) to 100 (complete kill), whereby the results shown in Table 6, were obtained. Compound Nos. in Table 6 correspond to Compound Nos. in Table 1 and 2 given hereinbefore.

[3] = tested on: crabgrass (Digitaria sanguinalis L.): DIGSA; test: Test Example 1 pre-emergence herbicidal activity, DIGSA; conditions: Rate 63 g a.i./ha, visually observed 20th to 23rd day after application
Outline: (§3)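 Percent growth control, rated visually 20–23 d after a pre-emergence spray applied 1 d post-sowing; compound formulated as WP or EC in 500 L/ha water at a predetermined a.i. amount.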

[4] = tested on: soybean (Glycine max Merr.): GLXMA; test: Test Example 1 pre-emergence herbicidal activity, GLXMA; conditions: Rate 63 g a.i./ha, visually observed 20th to 23rd day after application
Outline: as §3

[5] = tested on: corn (Zea mays L.): ZEAMX; test: Test Example 1 pre-emergence herbicidal activity, ZEAMX; conditions: Rate 63 g a.i./ha, visually observed 20th to 23rd day after application
Outline: as §3

[6] = tested on: soybean (Glycine max Merr.), GLXMA; test: Test Example 2 post-emergence (foliage treatment) herbicidal activity, GLXMA; conditions: 63 g a.i./ha
Outline: as §1

[7] = tested on: rice (Oryza sativa L.), ORYSA; test: Test Example 2 post-emergence (foliage treatment) herbicidal activity, ORYSA; conditions: 63 g a.i./ha
Outline: as §1

[8] = tested on: japanese ribbon wapato (Sagittaria pygmaea: SA GPY); test: Test Example 3 water application herbicidal activity (paddy), SAGPY; conditions: 63 g a.i./ha, water application under submerged condition, tubers planted, visually observed 14th day after application; 0 = untreated control, 100 = complete kill
Text: as §2

[9] = tested on: velvetleaf (Abutilon theophrasti), ABUTH; test: Test Example 2 post-emergence (foliage treatment) herbicidal activity, ABUTH; conditions: 63 g a.i./ha
Outline: as §1

[10] = tested on: prickly sida (Sida spinosa L.): SEDSP; test: Test Example 1 pre-emergence herbicidal activity, SIDSP; conditions: Rate 63 g a.i./ha, visually observed 20th to 23rd day after application
Outline: as §3

[11] = tested on: prickly sida (Sida spinosa L.), SIDSP; test: Test Example 2 post-emergence (foliage treatment) herbicidal activity, SIDSP; conditions: 63 g a.i./ha
Outline: as §1

[12] = tested on: crabgrass (Digitaria sanguinalis L.), DIGSA; test: Test Example 2 post-emergence (foliage treatment) herbicidal activity, DIGSA; conditions: 63 g a.i./ha
Outline: as §1

[13] = tested on: wheat (Triticum aestivum L.): TRZAX; test: Test Example 1 pre-emergence herbicidal activity, TRZAX; conditions: Rate 63 g a.i./ha, visually observed 20th to 23rd day after application
Outline: as §3

[14] = tested on: green foxtail (Setaria viridis L.), SETVI; test: Test Example 2 post-emergence (foliage treatment) herbicidal activity, SETVI; conditions: 63 g a.i./ha
Outline: as §1

[15] = tested on: green foxtail (Setaria viridis L.): SETVI; test: Test Example 1 pre-emergence herbicidal activity, SETVI; conditions: Rate 63 g a.i./ha, visually observed 20th to 23rd day after application
Outline: as §3

[16] = tested on: wheat (Triticum aestivum L.), TRZAX; test: Test Example 2 post-emergence (foliage treatment) herbicidal activity, TRZAX; conditions: 63 g a.i./ha
Outline: as §1

[17] = tested on: japanese bulrush (Scirpus juncoides: SCPJO); test: Test Example 3 water application herbicidal activity (paddy), SCPJO; conditions: 63 g a.i./ha, water application under submerged condition at 0.5 leaf stage, visually observed 14th day after application; 0 = untreated control, 100 = complete kill
Text: as §2

[18] = tested on: barnyardgrass (Echinochloa crus-galli L.): ECHCG; test: Test Example 1 pre-emergence herbicidal activity, ECHCG; conditions: Rate 63 g a.i./ha, visually observed 20th to 23rd day after application
Outline: as §3

[19] = tested on: velvetleaf (Abutilon theophrasti): ABUTH; test: Test Example 1 pre-emergence herbicidal activity, ABUTH; conditions: Rate 63 g a.i./ha, visually observed 20th to 23rd day after application
Outline: as §3

[20] = tested on: rice (Oryza sativa L.): ORYSA; test: Test Example 1 pre-emergence herbicidal activity, ORYSA; conditions: Rate 63 g a.i./ha, visually observed 20th to 23rd day after application
Outline: as §3

[21] = tested on: barnyardgrass (Echinochloa crus-galli L.), ECHCG; test: Test Example 2 post-emergence (foliage treatment) herbicidal activity, ECHCG; conditions: 63 g a.i./ha
Outline: as §1

[22] = tested on: redroot pigweed (Amaranthus retroflexus L.), AMARE; test: Test Example 2 post-emergence (foliage treatment) herbicidal activity, AMARE; conditions: 63 g a.i./ha
Outline: as §1

[23] = tested on: redroot pigweed (Amaranthus retroflexus L.): AMARE; test: Test Example 1 pre-emergence herbicidal activity, AMARE; conditions: Rate 63 g a.i./ha, visually observed 20th to 23rd day after application
Outline: as §3

Structure (SMILES) | growth controlling degree, ZEAMX [1] [%] | growth controlling degrees (%) ECHOR [2] [%] | Pre-emergence Herbicidal Activity DIGSP (growth controlling degree) [3] [%] | Pre-emergence Herbicidal Activity GLXMA (growth controlling degree) [4] [%] | Pre-emergence Herbicidal Activity ZEAMX (growth controlling degree) [5] [%] | growth controlling degree, GLXMA [6] [%] | growth controlling degree, ORYSA [7] [%] | growth controlling degrees (%) SAGPY [8] [%] | growth controlling degree, ABUTH [9] [%] | Pre-emergence Herbicidal Activity SIDSP (growth controlling degree) [10] [%] | growth controlling degree, SIDSP [11] [%] | growth controlling degree, DIGSP [12] [%] | Pre-emergence Herbicidal Activity TRZAX (growth controlling degree) [13] [%] | Pre-emergence Herbicidal Activity SETVI (growth controlling degree) [15] [%] | growth controlling degree, TRZAX [16] [%] | growth controlling degrees (%) SCPJO [17] [%] | Pre-emergence Herbicidal Activity ECHCG (growth controlling degree) [18] [%] | Pre-emergence Herbicidal Activity ABUTH (growth controlling degree) [19] [%] | Pre-emergence Herbicidal Activity ORYSA (growth controlling degree) [20] [%] | growth controlling degree, ECHCO [21] [%] | further results
COc1c(Cl)cc(F)c(-c2nn(C)c(OC(F)F)c2Cl)c1NC(=O)OCCN(C)C [Compound 1-66] | 40 | 90 | 20 | 0 | 0 | 60 | 50 | 0 | 100 | 20 | 100 | 40 | 0 | 10 | 20 | 30 | 0 | 20 | 0 | 20 | growth controlling degree, SETVI [14]: 60%
COc1c(Cl)cc(F)c(-c2nn(C)c(OC(F)F)c2Cl)c1NC(=O)OCc1cccnc1 [Compound 1-70] | 80 | 100 | 80 | 0 | 0 | 80 | 95 | 100 | 100 | 100 | 100 | 60 | 0 | 70 | 30 | 80 | 90 | 100 | 40 | 80 | growth controlling degree, AMARE [22]: 100%; Pre-emergence Herbicidal Activity AMARE (growth controlling degree) [23]: 100%
CCCOC(=O)Nc1c(OC)c(Cl)cc(F)c1-c1nn(C)c(OC(F)F)c1Cl [Compound 1-72] | 40 | 100 | 100 | 0 | 10 | 70 | 60 | 100 | 100 | 100 | 100 | 80 | 40 | 100 | 20 | 60 | 98 | 100 | 40 | 80 | growth controlling degree, AMARE [22]: 100%; Pre-emergence Herbicidal Activity AMARE (growth controlling degree) [23]: 100%
